Experimental data taken from the supplement of paper PMC10883282.
± gives the standard deviation of the averaged measurements.

Assays:
Assay in all cases: relative viability vs DMSO control (72 h) (fraction); higher = more viable cells
G401 = system: G401
Summary of the method: (§1)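 Sarcoma cell lines went into 384-well plates at densities chosen to reach 80–90% confluence. After 24 h, each well received 2.5 µl of serially diluted compound, with source plates running from 10 mM to 0.0002 mM, and the plates were kept 72 h at 37 °C, 5% CO2, alongside 0.1% DMSO vehicle and a 5 µM positive control. Relative viability was derived from ATPLite readings as percent growth and averaged over up to triplicate wells. The data were then rescaled so that 1 stands for full and 0 for none.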

SK-ES-1 = system: SK-ES-1
Summary of the method: as §1

SYO-1 = system: SYO-1
Summary of the method: as §1

HS729 = system: HS729
Summary of the method: as §1

SW872 = system: SW872
Summary of the method: as §1

SK-LMS-1 = system: SK-LMS-1
Summary of the method: as §1

RD = system: RD
Summary of the method: as §1

VA-ES-BJ = system: VA-ES-BJ
Summary of the method: as §1

MES-SA = system: MES-SA
Summary of the method: as §1

SW684 = system: SW684
Summary of the method: as §1

KHOS-NP = system: KHOS-NP
Summary of the method: as §1

A204 = system: A204
Summary of the method: as §1

COc1cc(Nc2c(C#N)cnc3cc(OCCCN4CCN(C)CC4)c(OC)cc23)c(Cl)cc1Cl [Bosutinib]
Conditions	relative viability
A204, 0.00017 µM	1.09 ± 0.039
A204, 0.00051 µM	1.12 ± 0.02
A204, 0.00152 µM	1.09 ± 0.07
A204, 0.00457 µM	1.13 ± 0.049
A204, 0.01372 µM	1.17 ± 0.036
A204, 0.04115 µM	1.21 ± 0.014
A204, 0.1235 µM	1.23 ± 0.015
A204, 0.3704 µM	1.21 ± 0.069
A204, 1.111 µM	1.111 ± 0.01
A204, 3.333 µM	0.807 ± 0.087
A204, 10 µM	0.259 ± 0.04
G401, 0.00017 µM	1.09 ± 0.028
G401, 0.00051 µM	1.09 ± 0.057
G401, 0.00152 µM	1.08 ± 0.05
G401, 0.00457 µM	1.06 ± 0.027
G401, 0.01372 µM	1.09 ± 0.04
G401, 0.04115 µM	1.09 ± 0.038
G401, 0.1235 µM	1.08 ± 0.03
G401, 0.3704 µM	1.08 ± 0.019
G401, 1.111 µM	1.03 ± 0.053
G401, 3.333 µM	0.909 ± 0.014
G401, 10 µM	0.0203 ± 0.014
HS729, 0.00017 µM	1.06 ± 0.082
HS729, 0.00051 µM	1.04 ± 0.08
HS729, 0.00152 µM	1.1 ± 0.029
HS729, 0.00457 µM	1.05 ± 0.031
HS729, 0.01372 µM	1.07 ± 0.046
HS729, 0.04115 µM	1.05 ± 0.041
HS729, 0.1235 µM	0.978 ± 0.091
HS729, 0.3704 µM	0.922 ± 0.094
HS729, 1.111 µM	0.773 ± 0.038
HS729, 3.333 µM	0.79 ± 0.055
HS729, 10 µM	0.107 ± 0.11
KHOS-NP, 0.00017 µM	1.08 ± 0.017
KHOS-NP, 0.00051 µM	1.12 ± 0.015
KHOS-NP, 0.00152 µM	1.13 ± 0.025
KHOS-NP, 0.00457 µM	1.11 ± 0.016
KHOS-NP, 0.01372 µM	1.117 ± 0.011
KHOS-NP, 0.04115 µM	1.11 ± 0.02
KHOS-NP, 0.1235 µM	1.1 ± 0.044
KHOS-NP, 0.3704 µM	1.01 ± 0.017
KHOS-NP, 1.111 µM	0.837 ± 0.044
KHOS-NP, 3.333 µM	0.482 ± 0.033
KHOS-NP, 10 µM	0.264 ± 0.019
MES-SA, 0.00017 µM	1.018 ± 0.0064
MES-SA, 0.00051 µM	0.992 ± 0.01
MES-SA, 0.00152 µM	1.01 ± 0.036
MES-SA, 0.00457 µM	0.979 ± 0.067
MES-SA, 0.01372 µM	0.989 ± 0.03
MES-SA, 0.04115 µM	0.993 ± 0.03
MES-SA, 0.1235 µM	0.994 ± 0.011
MES-SA, 0.3704 µM	0.926 ± 0.049
MES-SA, 1.111 µM	0.675 ± 0.022
MES-SA, 3.333 µM	0.432 ± 0.015
MES-SA, 10 µM	0.228 ± 0.061
RD, 0.00017 µM	1.11 ± 0.031
RD, 0.00051 µM	1.11 ± 0.032
RD, 0.00152 µM	1.12 ± 0.05
RD, 0.00457 µM	1.11 ± 0.065
RD, 0.01372 µM	1.11 ± 0.032
RD, 0.04115 µM	1.14 ± 0.045
RD, 0.1235 µM	1.15 ± 0.078
RD, 0.3704 µM	1.12 ± 0.071
RD, 1.111 µM	0.88 ± 0.045
RD, 3.333 µM	0.665 ± 0.03
RD, 10 µM	0.0202 ± 0.003
SK-ES-1, 0.00017 µM	1.05 ± 0.056
SK-ES-1, 0.00051 µM	1.06 ± 0.014
SK-ES-1, 0.00152 µM	1.06 ± 0.016
SK-ES-1, 0.00457 µM	1.07 ± 0.036
SK-ES-1, 0.01372 µM	1 ± 0.032
SK-ES-1, 0.04115 µM	1.02 ± 0.056
SK-ES-1, 0.1235 µM	0.935 ± 0.025
SK-ES-1, 0.3704 µM	0.732 ± 0.019
SK-ES-1, 1.111 µM	0.482 ± 0.042
SK-ES-1, 3.333 µM	0.303 ± 0.0096
SK-ES-1, 10 µM	0.136 ± 0.0046
SK-LMS-1, 0.00017 µM	1.06 ± 0.012
SK-LMS-1, 0.00051 µM	1.07 ± 0.048
SK-LMS-1, 0.00152 µM	1.08 ± 0.031
SK-LMS-1, 0.00457 µM	1.07 ± 0.047
SK-LMS-1, 0.01372 µM	1.1 ± 0.066
SK-LMS-1, 0.04115 µM	1.16 ± 0.045
SK-LMS-1, 0.1235 µM	1.22 ± 0.058
SK-LMS-1, 0.3704 µM	1.24 ± 0.028
SK-LMS-1, 1.111 µM	1.1 ± 0.032
SK-LMS-1, 3.333 µM	0.873 ± 0.02
SK-LMS-1, 10 µM	0.0696 ± 0.0023
SW684, 0.00017 µM	1.24 ± 0.013
SW684, 0.00051 µM	1.25 ± 0.013
SW684, 0.00152 µM	1.306 ± 0.0093
SW684, 0.00457 µM	1.27 ± 0.02
SW684, 0.01372 µM	1.25 ± 0.026
SW684, 0.04115 µM	1.28 ± 0.052
SW684, 0.1235 µM	1.33 ± 0.053
SW684, 0.3704 µM	1.31 ± 0.046
SW684, 1.111 µM	1.05 ± 0.018
SW684, 3.333 µM	0.6 ± 0.031
SW684, 10 µM	0.101 ± 0.0037
SW872, 0.00017 µM	1.1 ± 0.026
SW872, 0.00051 µM	1.131 ± 0.0085
SW872, 0.00152 µM	1.12 ± 0.029
SW872, 0.00457 µM	1.12 ± 0.03
SW872, 0.01372 µM	1.12 ± 0.015
SW872, 0.04115 µM	1.123 ± 0.011
SW872, 0.1235 µM	1.085 ± 0.01
SW872, 0.3704 µM	0.984 ± 0.029
SW872, 1.111 µM	0.727 ± 0.024
SW872, 3.333 µM	0.555 ± 0.065
SW872, 10 µM	0.0547 ± 0.0073
SYO-1, 0.00017 µM	1.04 ± 0.055
SYO-1, 0.00051 µM	1.03 ± 0.054
SYO-1, 0.00152 µM	1.02 ± 0.063
SYO-1, 0.00457 µM	1.04 ± 0.05
SYO-1, 0.01372 µM	1.01 ± 0.027
SYO-1, 0.04115 µM	0.989 ± 0.041
SYO-1, 0.1235 µM	0.966 ± 0.02
SYO-1, 0.3704 µM	0.966 ± 0.019
SYO-1, 1.111 µM	0.868 ± 0.021
SYO-1, 3.333 µM	0.641 ± 0.025
SYO-1, 10 µM	-0.0056 ± 0.0021
VA-ES-BJ, 0.00017 µM	1.11 ± 0.045
VA-ES-BJ, 0.00051 µM	1.14 ± 0.029
VA-ES-BJ, 0.00152 µM	1.12 ± 0.014
VA-ES-BJ, 0.00457 µM	1.12 ± 0.033
VA-ES-BJ, 0.01372 µM	1.14 ± 0.037
VA-ES-BJ, 0.04115 µM	1.16 ± 0.056
VA-ES-BJ, 0.1235 µM	1.14 ± 0.045
VA-ES-BJ, 0.3704 µM	1.03 ± 0.039
VA-ES-BJ, 1.111 µM	0.729 ± 0.019
VA-ES-BJ, 3.333 µM	0.545 ± 0.0093
VA-ES-BJ, 10 µM	0.0514 ± 0.0046
